Tested on: S. aureus isolates
Assay: Vitek AST cards MIC
Assay type: cell-based
Conditions: 3/5 strains classified as benzyl-penicillin resistant and oxacillin sensitive by Vitek cards
Experimental: Twenty different strains of S. aureus (10 MRSA and 10 MSSA strains, confirmed with cefoxitin discs and Vitek-2) were propagated. A loopful of growth (1 μL) was removed from 24-hour plates and suspended in BacT/ALERT SA culture media (8 ml in a glass screw-capped tube). The tubes were vortexed well and incubated at 36° C. for 6 hours. The OD of each suspension was measured at 660 nm and adjusted to approximately the same density (0.50-0.75 OD; sample #12166 was only 0.28). 50 μM BOCILLIN™-FL (0.1 ml) was placed into each of 20 labeled microfuge tubes. A sample of each strain (0.9 ml) was added to each tube, mixed, and incubated at 37° C. for 30 minutes. The reaction mixture was then removed and added to a second set of tubes containing 0.2 ml of an oil blend (1.000 part type DF immersion oil plus 0.875 part Drakeol 5 mineral oil). The tubes were centrifuged for 2 minutes at 10,000 rpm in an A-8-11 rotor (Eppendorf 5417R). The supernatant and most of the oil was aspirated with a vacuum device. The remaining oil was removed using a Gilson P200 tip and the pellet was resuspended in 100 μl PBS. The cells were transferred to an acrylic cuvette containing 3 ml PBS and read in the FluoroLog 3 system using the FluoroScan “Bocillin” points listed in Table 3. Additionally, Vitek AST cards were run on each of the 20 isolates (from the same 24 hour plates).

Work on `Cc1onc(-c2ccccc2)c1C(=O)N[C@@H]1C(=O)N2[C@@H]1SC(C)(C)[C@@H]2C(=O)O` [oxacillin] yielded an oxacillin MIC of 0.5 µg/mL.

— patent US10988792B2, “Methods for antimicrobial resistance determination” (bioMerieux, Inc., priority 2009, dated 2021)
